Source: US20060141473A1, “Erk7 and erk8, novel diagnostic markers for cancer” (priority 2003, published 2006)
Residues, ends and D or L forms follow the SMILES beside them. *: point of attachment. Cbz = O=C(OCc1ccccc1)*

Key:
[1] = molecular target: T1, bacterially expressed ERK7 (Rattus norvegicus, UniProt Q9Z2A6); assay: ERK7 kinase assay, phosphorylation of GST-MBPtide, HRP-ELISA; format: biochemical; settings: purified ERK7 5 nM
T1 construct: HIS-tag; made in house; host or cells: bacteria
T1 sequence (Q9Z2A6 1-547): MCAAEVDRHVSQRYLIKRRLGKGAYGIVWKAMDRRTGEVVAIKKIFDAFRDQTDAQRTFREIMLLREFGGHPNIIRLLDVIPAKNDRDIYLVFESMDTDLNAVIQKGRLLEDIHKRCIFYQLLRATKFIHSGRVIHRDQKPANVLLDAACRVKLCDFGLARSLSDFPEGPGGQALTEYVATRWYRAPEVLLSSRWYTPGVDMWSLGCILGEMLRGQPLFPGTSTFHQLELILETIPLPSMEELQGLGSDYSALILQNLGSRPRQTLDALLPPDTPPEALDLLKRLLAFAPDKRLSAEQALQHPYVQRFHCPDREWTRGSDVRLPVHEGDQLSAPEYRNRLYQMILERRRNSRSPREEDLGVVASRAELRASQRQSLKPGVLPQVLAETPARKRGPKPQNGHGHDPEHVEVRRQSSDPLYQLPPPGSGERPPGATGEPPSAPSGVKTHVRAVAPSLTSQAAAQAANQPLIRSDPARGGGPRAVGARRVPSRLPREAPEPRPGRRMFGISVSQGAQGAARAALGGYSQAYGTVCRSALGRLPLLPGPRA
Procedure: FIG. 1: is a graph representing the determination of the KM of ATP for bacterially expressed ERK7. Purified ERK7 (5 nM) was incubated in the presence of increasing ATP concentrations. The concentration of ATP supporting maximal velocity of the kinase reaction is 1 mM. The concentration of ATP supporting half-maximal velocity (KM) is ˜100 μM. Background is the measured signal from reactions carried out in the presence of 200 mM EDTA, which eliminates kinase activity. The background has not been subtracted from the ERK7 signal. Phosphorylation of the immobilized GST-MBPtide was detected using the HRP-ELISA as described in Example 1.
Kinase assays were developed to measure the activity of rat ERK7 and human ERK8. Purified, recombinant ERK7 and ERK8 were obtained by introducing a HIS-tag in frame with the coding sequence of the kinases, expressing the proteins in bacteria and purifying the proteins over a NiNTA resin (Qiagen, Valencia, Calif.). […]
The kinase assays were performed in a 96 well format according to the following procedure. […] All assays measured the initial velocity of reaction. […] HRP activity was measured using Western Lightning Chemiluminescence Reagent (NEL102, PerkinElmer Life Sciences) according to manufacturer's protocol. Maximum and minimum activity is the relative luminescence detected in the presence of vehicle and 200 mM EDTA, respectively. […]

[2] = tested on: ERα-regulated transcription; assay: ERE-luciferase transcriptional analysis in MCF-7 stable lines; format: cell-based, human
ERα = ERα protein levels by immunoblot in transfected BHK cells treated with proteasome inhibitor; format: cell-based, hamster; settings: presence and absence of estradiol
Procedure: BHK cells were transfected in 10 mm dishes with calcium phosphate and 1 μg of wild type or mutant ERα or FLAG-IκBα or HA-SF1 or HA-AR construct, 5 μg of a construct encoding a wild type or mutant kinase or vector control. At 8 h post transfection, the cells were washed with phosphate-buffered saline (PBS) and placed in Dulbecco's modified Eagle's medium (DMEM) with 5% fetal calf serum (FCS).

MAPK(ERK1/2) = settings: cells expressing MAPK(ERK1/2); cited from earlier work
ERK7/8 = settings: cited from earlier work

Nc1ncnc2c1ncn2[C@@H]1O[C@H](COP(=O)(O)OP(=O)(O)OP(=O)(O)O)[C@@H](O)[C@H]1O [ATP]
concentration supporting maximal velocity of the kinase reaction [1]: 1 mM | Km ([1]; increasing ATP, read-out: KM (concentration supporting half-maximal velocity)): ~100 µM

CC(C)C[C@@H](C=O)NC(=O)[C@H](CC(C)C)NC(=O)[C@H](CC(C)C)NC(=O)OCc1ccccc1 [MG132] (Cbz-Leu-Leu-Leu-aldehyde)
effect on transcriptional response ([2]; MCF-7 cells stably expressing K43A-ERK7, ERE-luciferase reporter): not affected | increase of transcriptional response to estradiol ([2]; MCF-7 control (vector) stable cells, ERE-luciferase reporter): ~3 fold | effect on ERα protein levels (ERα): increased ERα protein levels

C=C1[C@@H](O)[C@@H]2O[C@]3(CC[C@H](/C=C/[C@@H](C)[C@@H]4CC(C)=C[C@@]5(O[C@H](C[C@@](C)(O)C(=O)O)CC[C@H]5O)O4)O3)CC[C@H]2O[C@@H]1[C@@H](O)C[C@H](C)[C@H]1O[C@@]2(CCCCO2)CC[C@H]1C [okadaic acid]
effect on amount of TEY phosphorylated MAPK(ERK1/2) (MAPK(ERK1/2)): increases | effect on ERK7/8 TEY phosphorylation (ERK7/8): no effect
